{"source": "patent US12075777B2", "about": "“Antimicrobial formulation” (Anitox Corporation, priority 2011, dated 2024)", "origin": "cited, not measured here", "key": {"[1]": {"test_system": "Staphylococcus aureus, E. coli and Salmonella typhimurium"}, "[2]": {"settings": "0, 0.1, 0.2, 0.3 and 0.4% in water"}, "yeast": {"test_system": "yeast", "design": "dose or concentration left out as unconfirmed", "settings": "10^5 CFU/bottle; equivalence: trans-2-hexenal with thermal treatment (56° C.) vs citral"}, "[3]": {"test_system": "A. flavus, P. notatum, A. alternate, F. oxysporum, Cladosporium species, B. subtilis and A. tumerfaciens"}, "pears and apples": {"test_system": "pears and apples", "settings": "12.5 μL/L; twenty four hours to seven days exposure"}, "peaches and nectarines": {"test_system": "peaches and nectarines", "settings": "at 40 μL/L"}, "soybean seed": {"test_system": "soybean seed", "settings": "1.8 of trans-2-hexenal/mL of air"}}}
{"smiles": "CC/C=C/CC=O", "note": "[(3E)-hexenal]", "values": [{"measurement": "effective level in controlling bacteria", "setting": "[1]", "result": "3 to 30", "unit": "µg/mL"}]}
{"smiles": "CC(=O)O", "note": "[acetic acid]", "values": [{"measurement": "effect on performance or intestinal microbial counts", "setting": "[2]", "result": "did not affect performance or intestinal microbial counts"}]}
{"smiles": "CC(C)=CCCC(C)=CC=O", "note": "[citral]", "values": [{"measurement": "concentration controlling yeast in beverages", "setting": "yeast", "result": "100-120 ppm"}, {"measurement": "concentration in growth media that reduced the concentration of E. coli", "setting": "E. coli", "result": "more than 0.01%"}, {"measurement": "concentration with bactericidal effect", "setting": "E. coli", "result": 0.08, "unit": "%"}]}
{"smiles": "CCC/C=C/C=O", "note": "[trans-2-hexenal]", "values": [{"measurement": "body weight and intake", "setting": "4000 ppm in diet, 13 wk", "result": "reduction in body weight and intake, but it was not significant"}, {"measurement": "changes in hematological parameters or organ weights", "setting": "dietary levels of 0, 260, 640, 1600 or 4000 ppm fed for 13 wk", "result": "did not induce any changes"}, {"measurement": "concentration that completely inhibited growth", "setting": "[3]", "result": 8, "unit": "ng/L air"}, {"measurement": "effect on fruit appearance, color, firmness, soluble solids content or titrateable acidity", "setting": "pears and apples", "result": "did not affect"}, {"measurement": "phytotoxicity", "setting": "peaches and nectarines", "result": "phytotoxic"}, {"measurement": "inhibition of soybean seed germination", "setting": "soybean seed", "result": "~100", "unit": "%"}]}
